From patent US7645802B2 (Biovail Laboratories International SRL., priority 2005, dated 2010)
Counter-ions that a name gives are not always drawn.

Columns and labels:
[1] = test system: chemically-induced seizures (induced by pentylenetetrazole) in mice; conditions: cited from earlier work
[2] = stability of polymorphic forms I, II, III by PXRD under ICH conditions; assay type: physicochemical; conditions: hydrobromide
Procedure: It is well known that organic molecules can crystallize into solid forms. Moreover the same organic compound may assume different crystalline arrangements in solid form, depending on the conditions under which the crystal product is formed. This phenomenon is commonly known as polymorphism. A study was undertaken to explore the polymorphic forms of bupropion hydrobromide. The crystal forms of the products obtained in this study were determined by powder X-ray diffraction (PXRD). A RIGAKU miniflex instrument (Radiation Cu Koc, generator 30 KV, filter Ni) was used to obtain the PXRD data.
The three polymorphic forms were subjected to stability testing. Samples of the polymorphic forms were subjected to ICH conditions (40° C., 75% R.H.) and PXRD data was obtained at 3 months and 6 months. […] Samples of the polymorphic forms II and III were tested after 1 month under the same accelerated stability conditions.
Samples of bupropion HBr form I were subjected to the conditions for the accelerated stability study as described in Example 10 and the shelf life stability study as described in Example 11.
10 g of bupropion HBr form I were dissolved in a mixture of 170 ml of acetone and 7 ml of water. The mixture was brought to reflux with dissolution of the solid. The solution was then cooled to room temperature. After one night the precipitate formed was filtered and dried at 40° C. under vacuum (30 mmHg) for 12 hours. 2.4 g of bupropion HBr form II were obtained. […] The crystalline form was checked after maintaining the product under these conditions for 1 month.
The mixture was brought to reflux obtaining complete dissolution of the solid. The solution was then cooled to room temperature without stirring and left in these conditions for 18 hours. The resulting crystalline solid was then filtered and dried under vacuum (30 mmHg) at 50° C. for 4 hours. 11.2 g of bupropion HBr form III were obtained. A sample of the product was prepared for stability testing by sealing the product in polyethylene bags, which in turn were placed in aluminium bags containing silica and sealed, and placed in the stability chamber in ICH conditions (40° C./75% R.H.). The crystalline form was checked after maintaining the product in these conditions for 1 month.

[3] = moisture content by KF and pH (aq. 0.5%) of bupropion salts; assay type: physicochemical
Procedure: The eight salts were first evaluated by HPLC, KF, pH and DSC for purity, water content, aqueous pH and possible polymorphs.
(§1) The salts were analyzed by DSC (at 10° C./min from 30° C. up to 400° C.) and the pH (aq. 0.5%), and the moisture content by KF were also measured. The TGA was performed on the HCl, maleate, tosylate and HBr salts.

TGA of bupropion salts = assay type: physicochemical; conditions: for residue (TGA): at 400° C.; for weight lost (TGA): from room temperature to 100° C.
Procedure: 2-5 mg of each salt was placed in an aluminium pan and covered with its lid. DSC was run for each sample at the rate of 10 degrees C./min (for HBr salt, different rates were used to investigate for polymorphs) from 30 degrees C. to 400 degrees C. TGA was also used for each of the HBr, HCl, maleate and tosylate salts.
as §1

[4] = forced degradation stability study of bupropion salts in vials, 40 degrees C./75% RH, HPLC assay and impurities
[5] = ICH conditions 40° C./75% R.H., 1 month
[6] = after re-crystallization in acetonitrile/hexane or acetonitrile/EtOAc

Br [bromide]
ED50 / therapeutic dose level against pentylenetetrazole-induced seizures [1]: 910 mg/kg

CC(NC(C)(C)C)C(=O)c1cccc(Cl)c1 (centres unmarked) [bupropion HBr form I, bupropion hydrobromide]
PXRD profile after storage (polymorph stability) ([2]; 40° C., 75% R.H. (b1144 also 25° C./60% RH), 3 months and 6 months): gave the same results
PXRD profile after storage (polymorph stability) ([2]; 40° C., 75% R.H. (b1144 also 25° C./60% RH), 3 months and 6 months, listed as polymorphic form I): same PXRD profile

CC(NC(C)(C)C)C(=O)c1cccc(Cl)c1 (centres unmarked) [bupropion HBr form II, bupropion hydrobromide]
PXRD profile after storage (polymorph stability) [2, 5]: still in form II
PXRD profile after storage (polymorph stability) ([2]; ICH conditions 40° C./75% R.H., 1 month, listed as Polymorphic form II): no change in the PXRD profile

CC(NC(C)(C)C)C(=O)c1cccc(Cl)c1 (centres unmarked) [bupropion HBr form III, bupropion hydrobromide]
PXRD profile after storage (polymorph stability) [2, 5]: not stable in this form under these conditions
PXRD profile after storage (polymorph stability) ([2]; ICH conditions 40° C./75% R.H., 1 month, listed as form III): conversion to form II

[Br-].[Na+] [sodium bromide]
ED50 / therapeutic dose level against pentylenetetrazole-induced seizures [1]: 910 mg/kg

Bupropion maleate
moisture content KF ([3]; salt as received): 0.10%
pH of the aqueous solution of 0.5% ([3]; salt as received): 4.29
thermally stable to at least (TGA) (TGA of bupropion salts): at least 150 °C
residue (TGA) (TGA of bupropion salts): minimal residues
weight lost (TGA) (TGA of bupropion salts): 1.3%
In IPA/EtOH, 3-CBZ: order of impurity content [4]: maleate > HBr > HCl > Fumarate
In IPA/EtOH, 852U77: order of impurity content [4]: fumarate > HBr ≈HCl ≈maleate ≈tosylate
In IPA/EtOH, Total imp.: order of impurity content [4]: fumarate > maleate > HBr > HCl > tosylate
In water, 3-CBZ: order of impurity content [4]: HCl > HBr≈maleate≈fumarate
In water, 852U77: order of impurity content [4]: fumarate > HBr > maleate > HCl
In water, Total imp.: order of impurity content [4]: fumarate > HBr > HCl > tosylate > maleate

Bupropion tosylate
moisture content KF [3, 6]: 0.23%
pH [3, 6]: 5.88
moisture content KF ([3]; re-crystallized sample retested after two months): 0.18%
moisture content KF ([3]; salt as received): 1.71%
pH of the aqueous solution of 0.5% ([3]; salt as received): 5.56
residue (TGA) (TGA of bupropion salts): 10.3%
weight lost (TGA) (TGA of bupropion salts): 1.3%
In IPA/EtOH, 852U77: order of impurity content [4]: fumarate > HBr ≈HCl ≈maleate ≈tosylate
In IPA/EtOH, Total imp.: order of impurity content [4]: fumarate > maleate > HBr > HCl > tosylate
In water, Total imp.: order of impurity content [4]: fumarate > HBr > HCl > tosylate > maleate
